Results as given in article PMC5859192, “Mechanisms underlying the lack of endogenous processing and CLIP-mediated binding of the invariant chain by HLA-DP^84Gly” (Scientific Reports, 2018).
Numbering of substitutions follows the chain as printed. Where “and” joins values, the source holds several entries; their conditions need not be identical. Equal entries are not always repeated. Ends that are not written are not given here.

Assays:
[1] = biological target: T1, HLA-DP4 (DPA1*01:03/DPB1*04:01) expressed on K562 cells (Homo sapiens, UniProt P04440+P20036); experiment: cell-based; format: binding
T1 construct: expressed in transfected cells; host or cells: K562 (human erythroleukemic cells without endogenous MHC class II, Ii or HLA-DM), retrovirally transduced, pMX vector
T1 sequence (P20036 29-260): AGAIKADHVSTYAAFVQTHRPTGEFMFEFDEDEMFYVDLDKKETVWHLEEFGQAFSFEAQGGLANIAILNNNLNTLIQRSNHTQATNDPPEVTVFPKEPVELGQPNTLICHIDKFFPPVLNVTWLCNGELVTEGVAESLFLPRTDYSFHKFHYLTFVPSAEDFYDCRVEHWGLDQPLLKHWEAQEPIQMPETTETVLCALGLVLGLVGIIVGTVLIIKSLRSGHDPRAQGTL
T1 sequence (P04440 30-258): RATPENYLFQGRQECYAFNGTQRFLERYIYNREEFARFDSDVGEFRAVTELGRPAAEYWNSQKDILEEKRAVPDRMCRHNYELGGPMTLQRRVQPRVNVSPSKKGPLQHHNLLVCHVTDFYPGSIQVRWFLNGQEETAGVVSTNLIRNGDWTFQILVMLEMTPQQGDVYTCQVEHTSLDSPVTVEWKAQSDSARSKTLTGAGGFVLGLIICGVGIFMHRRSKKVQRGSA

[2] = biological target: T2, DP4^84DEAV87 (substitution mutant of DPB1*04:01 with DPA1*01:03) expressed on K562 cells (Homo sapiens, UniProt P04440+P20036, G113D/G114E/M116V/P115A); experiment: cell-based; format: binding
T2 construct: expressed in transfected cells; host or cells: K562 (human erythroleukemic cells without endogenous MHC class II, Ii or HLA-DM), retrovirally transduced, pMX vector
T2 sequence (P20036 29-260): T1 sequence (P20036 29-260)
T2 sequence (P04440 30-258 G113D/G114E/P115A/M116V): T1 sequence (P04440 30-258) with G84D, G85E, P86A, M87V

LPKPPKPVSKMRMATPLLMQALPM [CLIP]
IC50 [1]: 12.2 µM and 14.7 µM | IC50 [2]: 6 µM

NLRMKLPKPPKPVSKMRMATPLLMQALPM [N-extended CLIP]
IC50 [1]: 29.8 µM

LPKPPKPVSKMRMATPLLMQALPMGALPQ [C-extended CLIP]
IC50 [1]: 15.3 µM

KKLLTQHFVQENYLEY [MAGE-A3_243–258, reference compound]
IC50 [1]: 28.7 µM | IC50 [2]: 33.7 µM
